Source: ChEMBL document CHEMBL1201862, “PubChem BioAssay data set” (2004)
Active and inactive are the calls of the source.

Key:
[1] = Late stage assay provider results from the probe development effort to identify inhibitors of the Plasmodium falciparum M17 Leucine Aminopeptidase (M17LAP): radiolabel-based cell-based dose response assay to identify compounds that inhibit P. falciparum growth in RBCs Set 2.; format: functional
[2] = MDA-MB-231 cell growth inhibition, dose response, cytotoxicity control for RAD54 inhibitor project, CellTiter-Glo luminescence, cherry-pick (AID 651692); format: functional, cell-based
[3] = molecular target: T1, DNA repair and recombination protein RAD54-like (Homo sapiens, UniProt Q92698); test: inhibitors of human RAD54 branch migration, confirmation, biochemical, fluorescence, cherry-picked samples, dose series (AID 651657); format: functional
T1 sequence (Q92698 whole entry): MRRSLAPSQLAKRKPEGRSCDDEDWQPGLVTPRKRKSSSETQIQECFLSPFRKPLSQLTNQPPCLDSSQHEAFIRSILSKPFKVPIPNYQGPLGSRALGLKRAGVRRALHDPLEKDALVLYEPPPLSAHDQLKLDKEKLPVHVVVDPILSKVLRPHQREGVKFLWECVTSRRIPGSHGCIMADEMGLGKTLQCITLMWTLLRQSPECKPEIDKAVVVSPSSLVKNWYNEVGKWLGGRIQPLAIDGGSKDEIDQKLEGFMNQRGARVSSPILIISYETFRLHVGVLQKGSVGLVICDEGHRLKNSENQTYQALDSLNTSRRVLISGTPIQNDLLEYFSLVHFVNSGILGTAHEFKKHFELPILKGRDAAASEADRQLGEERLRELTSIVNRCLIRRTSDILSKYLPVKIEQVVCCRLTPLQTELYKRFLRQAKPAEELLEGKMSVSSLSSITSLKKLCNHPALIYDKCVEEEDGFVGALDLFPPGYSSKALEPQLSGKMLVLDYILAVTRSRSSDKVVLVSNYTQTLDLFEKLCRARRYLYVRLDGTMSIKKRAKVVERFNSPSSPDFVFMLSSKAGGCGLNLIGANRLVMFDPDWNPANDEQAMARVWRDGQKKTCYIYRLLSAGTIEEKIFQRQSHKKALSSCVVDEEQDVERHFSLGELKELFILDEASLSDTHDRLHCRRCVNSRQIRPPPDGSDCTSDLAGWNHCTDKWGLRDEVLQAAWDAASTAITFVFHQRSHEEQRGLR

[4] = molecular target: SWI/SNF-related matrix-associated actin-dependent regulator of chromatin subfamily A member 2 (Homo sapiens, UniProt P51531); test: Luminescence-based cell-based high throughput dose response assay to identify activators of the function of SWI/SNF related, matrix associated, actin dependent regulator of chromatin, subfamily a, member 2 (SMARCA2, BRM).; format: functional
[5] = Counterscreen for activators of the function of SWI/SNF related, matrix associated, actin dependent regulator of chromatin, subfamily a, member 2 (SMARCA2, BRM): Luminescence-based cell-based high throughput dose response assay to identify non-selective compounds using the VP16 reporter assay.; format: functional
[6] = molecular target: T2, DNA repair protein RAD52 homolog (Homo sapiens, UniProt P43351); format: functional, biochemical
T2 sequence (P43351 whole entry): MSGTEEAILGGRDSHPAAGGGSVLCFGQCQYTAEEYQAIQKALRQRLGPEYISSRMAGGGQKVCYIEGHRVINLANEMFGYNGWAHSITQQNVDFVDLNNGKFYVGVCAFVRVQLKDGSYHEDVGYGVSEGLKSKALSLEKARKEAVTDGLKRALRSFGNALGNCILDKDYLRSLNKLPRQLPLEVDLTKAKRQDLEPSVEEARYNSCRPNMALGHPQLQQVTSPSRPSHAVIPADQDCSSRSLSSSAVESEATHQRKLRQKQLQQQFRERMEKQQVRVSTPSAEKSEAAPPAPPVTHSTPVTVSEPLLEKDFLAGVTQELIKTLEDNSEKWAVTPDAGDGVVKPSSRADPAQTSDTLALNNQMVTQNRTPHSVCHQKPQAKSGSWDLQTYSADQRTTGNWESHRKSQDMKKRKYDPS

[7] = molecular target: T3, RNA-binding protein pos-1 (Caenorhabditis elegans, UniProt G5EF15); test: inhibitors of POS-1/mex-3 RNA binding, dose response, biochemical, fluorescence polarization (AID 1964);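 also: purified POS-1 fused to maltose binding protein made in E. coli; potency of compounds blocking POS-1 binding to fluorescent RNA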
T3 sequence (G5EF15 whole entry): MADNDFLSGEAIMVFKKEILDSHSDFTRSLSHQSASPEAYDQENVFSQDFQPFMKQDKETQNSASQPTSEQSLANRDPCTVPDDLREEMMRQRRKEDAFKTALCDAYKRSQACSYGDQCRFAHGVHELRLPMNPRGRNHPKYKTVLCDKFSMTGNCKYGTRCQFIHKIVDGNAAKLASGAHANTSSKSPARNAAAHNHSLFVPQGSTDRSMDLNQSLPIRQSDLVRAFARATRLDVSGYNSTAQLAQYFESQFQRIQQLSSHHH

[8] = molecular target: T4, Zinc finger protein mex-5 (Caenorhabditis elegans, UniProt Q9XUB2); test: MEX-5/TCR-2 RNA interaction inhibitors, dose response, biochemical, C. elegans, fluorescence polarization (AID 1960)
T4 sequence (Q9XUB2 whole entry): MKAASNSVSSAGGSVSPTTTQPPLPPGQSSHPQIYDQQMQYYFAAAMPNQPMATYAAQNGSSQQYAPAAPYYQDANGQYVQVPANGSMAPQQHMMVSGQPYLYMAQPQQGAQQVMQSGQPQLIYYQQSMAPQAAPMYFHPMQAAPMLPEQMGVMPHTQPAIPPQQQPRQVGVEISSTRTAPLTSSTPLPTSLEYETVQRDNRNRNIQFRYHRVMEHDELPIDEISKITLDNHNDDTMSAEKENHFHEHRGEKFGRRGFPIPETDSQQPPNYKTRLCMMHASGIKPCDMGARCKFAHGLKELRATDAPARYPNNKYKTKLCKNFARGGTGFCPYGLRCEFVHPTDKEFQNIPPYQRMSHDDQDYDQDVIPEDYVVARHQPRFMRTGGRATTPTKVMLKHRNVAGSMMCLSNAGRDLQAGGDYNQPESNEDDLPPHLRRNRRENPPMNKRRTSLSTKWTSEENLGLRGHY

Beta-lactamase [9] = molecular target: Beta-lactamase (Pseudomonas aeruginosa, UniProt Q79MP6);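 also: biochemical dose-response test of metallo-beta-lactamase enzyme inhibition, read out by epi-absorbance; purified recombinant IMP-1 metallo-beta-lactamase with nitrocefin as substrate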
Beta-lactamase [10] = molecular target: Beta-lactamase (Salmonella choleraesuis (strain SC-B67), UniProt Q5J463)
HeLa = test: HeLa cell cytotoxicity, dose response, cytotoxicity control, ATP luminescence, cherry-pick samples (AID 687004); format: functional, cell-based; settings: Homo sapiens
HEK293 = test: HEK293T cell cytotoxicity, dose response, cytotoxicity control, ATP luminescence, cherry-pick samples (AID 687005); format: functional, cell-based; settings: Homo sapiens;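 also: cells exposed to compound for 48 hours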
[11] = HEK293 Cytotoxicity Assay Measured in Cell-Based System Using Plate Reader - 7071-01_Inhibitor_Dose_CherryPick_Activity_Set2.; format: functional
[12] = molecular target: T5, Scavenger receptor class B member 1 (Mus musculus, UniProt Q61009); test: inhibitors of SR-BI-mediated HDL uptake, dose response, cell-based, ldlA[mSR-BI] CHO, DiI fluorescence, dry powder, set 10 (AID 624029); format: functional
T5 sequence (Q61009 whole entry): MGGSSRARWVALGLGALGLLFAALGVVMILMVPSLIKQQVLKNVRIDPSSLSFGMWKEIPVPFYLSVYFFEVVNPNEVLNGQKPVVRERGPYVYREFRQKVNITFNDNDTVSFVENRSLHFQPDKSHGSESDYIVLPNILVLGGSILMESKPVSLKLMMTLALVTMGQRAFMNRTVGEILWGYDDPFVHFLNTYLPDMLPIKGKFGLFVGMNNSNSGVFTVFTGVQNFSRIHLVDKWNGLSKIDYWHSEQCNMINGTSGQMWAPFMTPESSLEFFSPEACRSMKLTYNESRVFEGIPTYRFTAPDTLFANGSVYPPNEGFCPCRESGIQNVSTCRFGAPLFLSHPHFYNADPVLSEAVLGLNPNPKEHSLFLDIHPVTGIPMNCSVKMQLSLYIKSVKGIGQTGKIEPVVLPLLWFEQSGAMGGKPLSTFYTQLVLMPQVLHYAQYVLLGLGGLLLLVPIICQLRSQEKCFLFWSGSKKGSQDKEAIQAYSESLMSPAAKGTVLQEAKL

[13] = T. cruzi growth inhibition in host cells, dose response, cell-based, plate reader, dry powder, set 2 (AID 652275); format: functional
[14] = inhibitors of intracellular T. cruzi replication, confirmation, NIH3T3 host cells, beta-gal luminescence (AID 2044); format: functional, cell-based;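 also: intracellular parasites grown in NIH/3T3 mouse fibroblasts as host cells; luminescent beta-galactosidase reporter signal from transgenic T. cruzi replicating inside host cells; inhibitors lower the luminescence signal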
[15] = cytotoxicity toward NIH3T3 fibroblasts, dose response, counter-screen, cell-based, ATP luminescence, mouse fibroblasts (AID 2010); format: functional;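 also: cells exposed to compound for about 90 hours before reading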
[16] = THP-1 cell cytotoxicity, dose response, cytotoxicity control for non-replicating M. tuberculosis project (AID 489025); format: functional
[17] = HepG2 cell cytotoxicity, dose response, cytotoxicity control for non-replicating M. tuberculosis project (AID 489018); format: functional; settings: Mycobacterium tuberculosis
[18] = Vero E6 cell cytotoxicity, dose response, cytotoxicity control for non-replicating M. tuberculosis project, secondary assay (AID 492998); format: functional, VeroE6; settings: Vero C1008
cells [19] = format: functional
[20] = molecular target: T6, Sentrin-specific protease 8 (Homo sapiens, UniProt Q96LD8); format: functional
T6 sequence (Q96LD8 whole entry): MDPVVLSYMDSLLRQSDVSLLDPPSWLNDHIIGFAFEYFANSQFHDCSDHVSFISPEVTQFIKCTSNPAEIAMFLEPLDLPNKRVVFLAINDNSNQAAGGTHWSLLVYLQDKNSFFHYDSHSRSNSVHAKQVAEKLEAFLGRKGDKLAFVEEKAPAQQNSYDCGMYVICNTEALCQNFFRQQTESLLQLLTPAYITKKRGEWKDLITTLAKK

[21] = molecular target: T6, Sentrin-specific protease 8; format: functional; remark: listed apart in the source
Mu-type opioid receptor = Mu-type opioid receptor (Homo sapiens, UniProt P35372); format: functional, cell-based;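 also: U2OS cells with beta-arrestin recruitment to OPRM1 by beta-gal complementation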
[22] = molecular target: 5-hydroxytryptamine receptor 2A (Mus musculus, UniProt P35363); format: functional, cell-based;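 also: CHO-K1 cells with tagged receptor and beta-arrestin; agonist potency measured as compound-induced activation of the receptor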
[23] = molecular target: Long-chain-fatty-acid--AMP ligase FadD28 (Mycobacterium tuberculosis, UniProt P9WQ59); test: Fluorescence polarization aasay to screen for inhibitors that compete for the binding of FadD28 to a bisubstrate Measured in Biochemical System Using Plate Reader - 2147-01_Inhibitor_Dose_CherryPick_Activity.; format: functional, Mycobacterium tuberculosis H37Rv
cells [24] = format: functional, cell-based
[25] = molecular target: Nuclear receptor subfamily 0 group B member 1 (Homo sapiens, UniProt P51843); format: functional, cell-based;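 also: HEK293T cells transfected with SF-1 and DAX-1 plus StAR promoter luciferase reporter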
[26] = molecular target: T5, Scavenger receptor class B member 1; test: inhibitors of SR-BI mediated HDL lipid uptake, dose response, ldlA[mSR-BI] cells, fluorescence, cherry pick (AID 493194); format: functional, cell-based;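 also: cellular uptake of fluorescent DiI-labeled HDL measured as cell fluorescence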
[27] = molecular target: Broad substrate specificity ATP-binding cassette transporter ABCG2 (Homo sapiens, UniProt Q9UNQ0); test: ABCG2 efflux pump inhibitors, dose response, Ig-MXP3 cells, flow cytometry (AID 1690); format: functional
[28] = molecular target: ADP-ribosylation factor GTPase-activating protein 1 (Rattus norvegicus, UniProt Q62848); test: Fluorescence polarization-based biochemical high throughput dose response screening assay to identify inhibitors of ADP-ribosylation factor GTPase activating protein 1 (ARFGAP1).; format: functional
[29] = molecular target: Arf-GAP with SH3 domain, ANK repeat and PH domain-containing protein 1 (Homo sapiens, UniProt Q9ULH1); format: functional;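 also: biochemical fluorescence polarization dose–response screen measuring inhibition of ASAP1; ASAP1 GAP domain stimulating GTP hydrolysis by truncated human ARF1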
[30] = microbe, parasite or virus in culture; format: functional; settings: Mycobacterium tuberculosis
[31] = molecular target: Matrix metalloproteinase-14 (Homo sapiens, UniProt P50281); test: Dose Response confirmation of uHTS hits for a small molecule inhibitors of MT1-MMP activation in a fluorescence assay set 1.; format: functional

Chain of Arf-GAP with SH3 domain, ANK repeat and PH domain-containing protein 1 (Q9ULH1 whole entry, the tested form may be a part): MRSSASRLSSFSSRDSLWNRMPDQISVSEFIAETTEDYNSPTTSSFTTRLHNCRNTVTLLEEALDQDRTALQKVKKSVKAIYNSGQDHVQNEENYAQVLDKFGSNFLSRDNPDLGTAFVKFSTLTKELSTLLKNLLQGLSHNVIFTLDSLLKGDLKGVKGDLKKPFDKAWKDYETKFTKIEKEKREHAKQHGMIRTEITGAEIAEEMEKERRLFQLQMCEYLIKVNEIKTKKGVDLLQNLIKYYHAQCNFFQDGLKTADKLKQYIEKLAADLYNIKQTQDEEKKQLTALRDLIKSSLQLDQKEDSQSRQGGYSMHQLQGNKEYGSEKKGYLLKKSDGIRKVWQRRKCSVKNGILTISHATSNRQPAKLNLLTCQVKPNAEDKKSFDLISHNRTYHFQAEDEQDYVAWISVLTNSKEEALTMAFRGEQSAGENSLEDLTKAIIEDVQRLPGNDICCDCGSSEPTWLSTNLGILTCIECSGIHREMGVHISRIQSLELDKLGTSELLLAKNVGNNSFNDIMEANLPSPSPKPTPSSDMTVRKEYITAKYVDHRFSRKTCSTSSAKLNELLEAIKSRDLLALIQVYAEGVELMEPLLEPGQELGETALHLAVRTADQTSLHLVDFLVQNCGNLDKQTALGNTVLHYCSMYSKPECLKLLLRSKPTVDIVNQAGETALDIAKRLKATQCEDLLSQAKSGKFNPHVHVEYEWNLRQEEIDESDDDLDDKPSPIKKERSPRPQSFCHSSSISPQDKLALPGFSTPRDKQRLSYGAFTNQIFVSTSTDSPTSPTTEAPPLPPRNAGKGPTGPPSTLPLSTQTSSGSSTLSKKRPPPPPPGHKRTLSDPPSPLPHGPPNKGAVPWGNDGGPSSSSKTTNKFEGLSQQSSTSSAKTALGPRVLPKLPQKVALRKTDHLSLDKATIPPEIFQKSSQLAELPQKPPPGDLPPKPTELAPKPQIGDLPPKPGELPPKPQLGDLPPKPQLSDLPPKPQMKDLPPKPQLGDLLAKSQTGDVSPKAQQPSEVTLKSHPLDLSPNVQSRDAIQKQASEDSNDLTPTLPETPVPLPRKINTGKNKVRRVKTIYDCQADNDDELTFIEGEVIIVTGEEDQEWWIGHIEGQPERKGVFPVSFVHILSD
Chain of Beta-lactamase (Pseudomonas aeruginosa, UniProt Q79MP6) (Q79MP6 whole entry): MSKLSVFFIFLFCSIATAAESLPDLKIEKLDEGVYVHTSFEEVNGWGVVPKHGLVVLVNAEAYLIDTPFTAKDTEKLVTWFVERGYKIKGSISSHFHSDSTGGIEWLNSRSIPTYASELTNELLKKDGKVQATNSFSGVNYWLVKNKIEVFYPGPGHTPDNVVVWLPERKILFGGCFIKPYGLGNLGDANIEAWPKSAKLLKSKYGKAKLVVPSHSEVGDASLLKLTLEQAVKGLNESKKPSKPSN
Chain of ADP-ribosylation factor GTPase-activating protein 1 (Q62848 whole entry, the tested form may be a part): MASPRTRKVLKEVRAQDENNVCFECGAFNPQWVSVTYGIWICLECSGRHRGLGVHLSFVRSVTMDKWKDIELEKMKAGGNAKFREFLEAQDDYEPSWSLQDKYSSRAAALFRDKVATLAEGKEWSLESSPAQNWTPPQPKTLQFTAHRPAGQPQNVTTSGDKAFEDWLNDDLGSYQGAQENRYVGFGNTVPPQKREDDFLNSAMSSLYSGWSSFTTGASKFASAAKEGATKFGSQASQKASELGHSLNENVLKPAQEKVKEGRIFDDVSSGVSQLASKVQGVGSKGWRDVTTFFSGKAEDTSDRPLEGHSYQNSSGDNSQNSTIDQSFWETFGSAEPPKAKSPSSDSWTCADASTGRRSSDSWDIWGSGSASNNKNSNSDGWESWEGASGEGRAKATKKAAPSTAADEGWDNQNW
Chain of Nuclear receptor subfamily 0 group B member 1 (P51843 whole entry): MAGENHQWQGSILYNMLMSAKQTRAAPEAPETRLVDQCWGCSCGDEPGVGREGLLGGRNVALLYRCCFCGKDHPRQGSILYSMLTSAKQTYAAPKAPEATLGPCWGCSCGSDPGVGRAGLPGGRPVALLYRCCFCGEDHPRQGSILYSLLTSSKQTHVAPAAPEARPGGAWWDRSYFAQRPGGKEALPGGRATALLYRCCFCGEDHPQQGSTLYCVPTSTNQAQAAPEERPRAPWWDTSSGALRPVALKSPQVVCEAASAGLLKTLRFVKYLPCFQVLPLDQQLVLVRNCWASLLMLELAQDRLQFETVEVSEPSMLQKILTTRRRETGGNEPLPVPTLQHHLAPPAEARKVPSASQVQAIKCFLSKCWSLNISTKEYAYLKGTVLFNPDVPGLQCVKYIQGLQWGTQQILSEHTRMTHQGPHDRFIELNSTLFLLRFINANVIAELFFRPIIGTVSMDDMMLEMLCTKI
Chain of Broad substrate specificity ATP-binding cassette transporter ABCG2 (Q9UNQ0 whole entry): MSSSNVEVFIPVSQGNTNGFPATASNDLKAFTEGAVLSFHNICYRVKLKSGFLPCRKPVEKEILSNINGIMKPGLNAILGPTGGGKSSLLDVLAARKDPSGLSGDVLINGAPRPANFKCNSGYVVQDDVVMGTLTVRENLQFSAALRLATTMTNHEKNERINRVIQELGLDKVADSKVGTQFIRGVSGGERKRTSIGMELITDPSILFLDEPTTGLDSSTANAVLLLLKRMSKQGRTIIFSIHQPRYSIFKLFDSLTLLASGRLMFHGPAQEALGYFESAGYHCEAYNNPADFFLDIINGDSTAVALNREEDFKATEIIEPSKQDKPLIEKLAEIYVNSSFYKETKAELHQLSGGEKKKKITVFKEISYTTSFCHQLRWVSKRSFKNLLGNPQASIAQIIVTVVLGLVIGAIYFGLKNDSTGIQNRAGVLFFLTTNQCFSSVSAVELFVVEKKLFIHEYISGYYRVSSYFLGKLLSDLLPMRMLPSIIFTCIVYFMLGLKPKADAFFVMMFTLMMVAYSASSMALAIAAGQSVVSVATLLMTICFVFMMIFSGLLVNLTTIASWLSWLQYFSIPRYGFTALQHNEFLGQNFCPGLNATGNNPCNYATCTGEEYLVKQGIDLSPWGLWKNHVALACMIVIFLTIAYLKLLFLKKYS
Chain of Long-chain-fatty-acid--AMP ligase FadD28 (P9WQ59 whole entry): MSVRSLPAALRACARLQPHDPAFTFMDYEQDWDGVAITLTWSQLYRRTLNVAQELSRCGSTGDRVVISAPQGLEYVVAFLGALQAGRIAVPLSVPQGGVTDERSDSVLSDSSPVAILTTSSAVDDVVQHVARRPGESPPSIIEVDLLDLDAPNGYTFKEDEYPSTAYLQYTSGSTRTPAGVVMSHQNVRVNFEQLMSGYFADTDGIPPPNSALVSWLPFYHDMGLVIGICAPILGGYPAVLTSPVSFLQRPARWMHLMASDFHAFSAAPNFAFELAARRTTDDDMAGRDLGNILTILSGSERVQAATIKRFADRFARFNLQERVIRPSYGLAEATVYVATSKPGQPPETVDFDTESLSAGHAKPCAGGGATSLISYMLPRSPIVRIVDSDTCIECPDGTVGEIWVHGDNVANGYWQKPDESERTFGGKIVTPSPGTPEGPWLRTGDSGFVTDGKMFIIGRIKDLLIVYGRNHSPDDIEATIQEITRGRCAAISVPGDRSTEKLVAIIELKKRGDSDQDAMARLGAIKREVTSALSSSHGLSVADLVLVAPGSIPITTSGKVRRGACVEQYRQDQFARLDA
Chain of Mu-type opioid receptor (P35372 whole entry): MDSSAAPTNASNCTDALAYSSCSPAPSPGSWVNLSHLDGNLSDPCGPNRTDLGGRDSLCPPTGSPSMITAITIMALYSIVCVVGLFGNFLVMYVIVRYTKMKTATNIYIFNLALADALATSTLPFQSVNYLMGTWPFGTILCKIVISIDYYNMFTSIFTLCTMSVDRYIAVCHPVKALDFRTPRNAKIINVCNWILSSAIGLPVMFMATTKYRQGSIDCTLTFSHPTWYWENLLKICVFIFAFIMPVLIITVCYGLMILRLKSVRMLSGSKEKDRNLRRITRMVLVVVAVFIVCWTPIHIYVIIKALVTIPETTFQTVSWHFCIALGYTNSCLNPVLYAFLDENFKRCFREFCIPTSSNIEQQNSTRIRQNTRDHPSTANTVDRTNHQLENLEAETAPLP
Chain of Beta-lactamase (Salmonella choleraesuis (strain SC-B67), UniProt Q5J463) (Q5J463 whole entry): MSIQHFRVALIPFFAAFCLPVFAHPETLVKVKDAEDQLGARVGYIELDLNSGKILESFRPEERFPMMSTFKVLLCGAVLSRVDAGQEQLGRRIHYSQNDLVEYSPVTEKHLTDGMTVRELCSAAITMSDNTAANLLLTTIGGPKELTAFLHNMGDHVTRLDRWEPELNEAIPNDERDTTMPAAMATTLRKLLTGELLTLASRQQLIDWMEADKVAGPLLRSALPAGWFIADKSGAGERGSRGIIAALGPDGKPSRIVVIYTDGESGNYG
Chain of 5-hydroxytryptamine receptor 2A (P35363 whole entry): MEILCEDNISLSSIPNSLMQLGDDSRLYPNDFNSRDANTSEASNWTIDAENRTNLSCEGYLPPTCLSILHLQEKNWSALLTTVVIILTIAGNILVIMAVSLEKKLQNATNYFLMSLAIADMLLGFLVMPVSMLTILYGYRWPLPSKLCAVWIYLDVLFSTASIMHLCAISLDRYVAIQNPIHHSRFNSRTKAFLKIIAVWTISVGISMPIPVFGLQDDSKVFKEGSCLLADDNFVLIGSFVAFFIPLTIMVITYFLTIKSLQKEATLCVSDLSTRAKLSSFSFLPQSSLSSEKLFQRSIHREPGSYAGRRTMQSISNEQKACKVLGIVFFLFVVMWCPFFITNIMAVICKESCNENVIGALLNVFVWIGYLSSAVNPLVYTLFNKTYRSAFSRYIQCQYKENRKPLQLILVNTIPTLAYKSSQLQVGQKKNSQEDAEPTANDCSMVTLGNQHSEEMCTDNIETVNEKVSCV

With `CCC(C)Oc1ccc(CC(=O)NO)cc1` (centres undefined) the IC50 [1] was 16.3 µM (inactive).
For `COc1cc(Nc2c3ccccc3nc3ccccc23)cc(OC)c1OC`, the AC50 [2] was 29.2 µM (active), the AC50 [3] was 14.8 µM (active) and the EC50 [4] was > 91.2 µM (inactive). For the same compound, the EC50 [5] was > 91.2 µM (inactive) and the AC50 [6] was 5.17 µM (active).
With `COc1ccc(/C=C2\CCCc3c2nc2ccccc2c3C(=O)O)cc1OC` the EC50 [7] was 9.28 µM (active), the EC50 [8] was 8.26 µM (inconclusive) and the IC50 (Beta-lactamase [9]) was > 59.6 µM (inactive). The IC50 (Beta-lactamase [10]) was 11.2 µM (inactive).
For `C[C@H]1CN([C@@H](C)CO)S(=O)(=O)c2ccc(C#Cc3ccccn3)cc2O[C@@H]1CN(C)Cc1ccccc1`, the AC50 (HeLa) was > 52 µM (inactive), the AC50 (HEK293) was 24.2 µM (active) and the AC50 [11] was 24.2 µM (active).
For `CC(C)NC(=O)Nc1ccc2c(c1)C(=O)N([C@@H](C)CO)C[C@@H](C)[C@@H](CN(C)S(=O)(=O)c1ccc(Cl)cc1)O2`, the AC50 [12] was 69.6 µM (active).
With `CN(C)C(=O)c1ccc(-c2ccc([C@H]3[C@H](CO)N4CCCCN(C(=O)C5CCC5)C[C@@H]34)cc2)cc1` the AC50 [13] was 0.072 µM (active).
For `Cc1ccccc1NCC(=O)N/N=C\c1ccc([N+](=O)[O-])s1`, the EC50 [14] was 0.506 µM (active), the EC50 [15] was > 60 µM (not active) and the CC50 [16] was 18.8 µM (active). The CC50 [17] was 16 µM (active), the CC50 [18] was 13.8 µM (active) and the IC50 (cells [19]) was 5.71 µM (active). The IC50 [20] was 46.7 µM (active) and the IC50 [21] was 90.4 µM (inactive).
In the case of `Cc1ccc(CN2CCN(C(=O)c3ccco3)CC2)cc1`, the EC50 (Mu-type opioid receptor) is reported as 92.5 µM (inactive) and the EC50 [22] is reported as 0.475 µM (active).
For `O=[N+]([O-])c1ccc(CNc2ccc(Cl)cc2)s1`, the AC50 [23] was > 100 µM (inactive).
For `CC(=Nc1ccccc1)C1=C(O)C(Cc2cccc(F)c2)NC1=O` (centres undefined), the IC50 (cells [24]) was > 67.5 µM (inactive) and the IC50 [25] was > 67.5 µM (inactive).
With `Cc1c(C(=O)Nc2ccc(F)cc2)c2ccccn2c1CCc1ccncc1` the AC50 [26] was 20.4 µM (active) and the EC50 [27] was 6.84 µM (inactive).
With `COc1ccc([N+](=O)[O-])cc1NC(=O)c1ccc(Br)s1` the IC50 [28] was 35.6 µM (inactive) and the IC50 [29] was 20.8 µM (inactive).
In the case of `COc1ccc(-c2oc3ccc(-c4ccc(OC)nc4)cc3c2C#CC2(O)CCCCC2)cc1`, the CC50 [30] is reported as > 40 µM (active) and the IC50 [31] is reported as 5.57 µM (active).
